Assay results taken from patent US20240327320A1, “NOVEL ROUTES OF CHEMICAL SYNTHESIS OF 20S(OH)D3, 20S,25(OH)2D3, 20S,23S(OH)2D3, AND 20S,23R(OH)2D3 AND THEIR MODIFICATION OF THE IMMUNE ACTIVITY OF PBMCS” (United State Government as represen ted by the Department …, priority 2023, published 2024).
Read-outs that look alike come from different tables or passages of the source.

What was measured:
[1] = cited from earlier work
[2] = tested on: CD4 and CD8 T cells from human peripheral blood; assay: T cell activation in PBMC, flow cytometry with TriMAP/FlowSOM; assay type: cell-based; conditions: 10^-7 M, 24 h, anti-CD3 and anti-CD28, compared to ethanol treated cells
Method: Human peripheral blood mononuclear cells (PBMC) from two healthy individuals were obtained from a pre-existing respository. Their use was approved by the University of Alabama at Birmingham Institutional Review Board (Human Subject Assurance Number FWA00005960) as an exempt protocol #4 (Dr C. Raman, P.I.). […] Informed consent is waived in accord with 45CFR46.116 (d). In 48 well plates, 0.5×10^6 PBMC/well were cultured in RPMI1640 containing, 5% charcoal adsorbed FBS and antibiotics and T cells were activated using […] anti-CD3 (clone 145-2C11) and 1 μg/ml anti-CD28 (clone 37.51) for 24 h (Janjetovic Z, et. al., (2021) Endocrinology 162(1), Chaiprasongsuk A, et. al., (2020) Free Radic Biol Med 155 87-98, Slominski A T, et. al., (2011) Am J Physiol Cell Physiol 300(3) C526-41, McGuire D J, et. al., (2014) Eur J Immunol 44(4) 1137-42, Sestero C M, et. al., (2012) J Immunol 189(6) 2918-30). The culture was treated with 10^-7 M 20S(OH)D3, 20S,25(OH)2D3, 20S,23S(OH)2D3, 20S,23R(OH)2D3 or 1α,25(OH)2D3 (Sigma-Aldrich, St. Louis, MO, USA) dissolved in ethanol and diluted in culture medium at the same time of addition of anti-CD3 and anti-CD28. The vehicle control comprised of 0.1% ethanol. At the end of assay the cells were stained with antibodies to CD4 (clone RPA-T4, BV-421), CD19 (clone HB19, BV-510), CD14 (clone HCD14, Alexa 700), CD137 (clone 4B4-1, BV605), CD8a (clone RPA-T8, FITC), ICOS (clone C398.4A, PE/Dazzle), PD1 (clone NAT105, PE), CD80 (clone 2D10, PerCP/Cy5.5), OX40 (clone ACT35, PE/Cy7), CD69 (clone FN50, APC), HLA-DR (clone L243, APC/Fire 750). All antibodies were from Biolegend except anti-CD8 was from Thermo Fisher. The stained cells were analyzed using a CytoFLEX (Beckman Coulter) flow cytometer.
For unbiased analysis of the multidimensional data, acomputational algorithm-based approaches was utilized (Quintelier K, et. al., (2021) Nature Protocols 16(8) 3775-3801). The flow cytometry standard (FCS) data files from each individual and treatment (two individuals, six treatments including ethanol, a total of 12 data files) were processed through the following workflow—compensation, gating on live cells, gating for single cells and subtraction of CD19+(B cells) and CD14+(monocytes). B cells and monocytes were removed from the analysis because only T cells (CD4+ and CD8+) are activated by anti-CD3 and anti-CD28. After these initial gating steps, a key word was added to each of the 12 FCS files, down sampled to 50,000 events/sample and concatenated. Down sampling ascertains that each sample is equally weighted, and concatenation ascertains that statistical analysis is applied equally. The concatenated files were first subjected to TriMAP analysis, a computational algorithm that clusters populations based on triplet relatedness followed by FlowSOM algorithm-based clustering (Quintelier K, et. al., (2021) Nature Protocols 16(8) 3775-3801). To perform these analyses, plugins within FlowJo (BD, CA, USA) were used.
T cells in peripheral blood from two healthy individuals were activated with anti-CD3 and anti-CD28 in the absence (ethanol) or presence of 10^−7 M of each of the vitamin D3 secosteroids for 24 h. The cells were stained for lineage markers (CD4, CD8, CD19, CD14) and a panel of activation induced markers (CD69, ICOS, OX40, CD137, PD1, HLADR) and expression data were collected using a flow cytometer. The gating strategy was live, single cell followed by CD4 and CD8 T cell populations. […]

Molecule | calcemic activity / toxicity ([1]; literature, at the same doses) | CD4 T cells of population 4 (down modulated CD4, increased CD69 and ICOS) [2] | calcemic activity / toxicity ([1]; in vivo)
25(OH)D3 [reference compound] | highly toxic | – | –
C=C1/C(=C\C=C2/CCC[C@]3(C)[C@@H]([C@H](C)CCCC(C)(C)O)CC[C@@H]23)C[C@@H](O)C[C@@H]1O [1α,25(OH)2D3, reference compound] | – | fewer cells | highly toxic
C=C1CC[C@H](O)C/C1=C/C=C1\CCC[C@@]2(C)[C@H]1CC[C@@H]2[C@@](C)(O)CC(O)CC(C)C (stereo partly shown) [20S,23(OH)2D3, 20,23-dihydroxyvitamin D3] | – | no effect on this population | –
